From patent US20260008739A1, “CRYSTAL AND FORMULATION OF REDUCED COENZYME Q10” (KANEKA CORPORATION, priority 2023, published 2026)

Assay: Oxidation stability of QH crystals on storage at 40° C. and 75% RH (HPLC of reduced and oxidized coenzyme Q10)
Assay type: physicochemical
Settings: for Relative QH ratio: QH ratio before storage = 100; for Oxidizing rate: crystal stored at 40° C. and 75% RH for approximately 1 month, decrease in relative QH ratio divided by days of storage
Experimental: The QH crystals prepared in Examples 1 to 3 and Comparative Examples 1 and 2 above were stored at 40° C. and 75% RH in a thermostatic chamber for approximately 1 month. Before and after the storage, the reduced coenzyme Q10 content and the oxidized coenzyme Q10 content of the crystal were measured by HPLC (high performance liquid chromatography). On the basis of the measurement results, the below-described QH ratio, relative QH ratio after storage, and oxidizing rate were calculated.
• Column: AS12S05-1546WT (manufactured by YMC Co., Ltd.) 150 mm (in length) and 4.6 mm (in inner diameter) • Mobile phase: C2H3N: CH3OH=1:9 (v:v) • Detection wavelength: 290 nm • Flow rate: 1 ml/min
The “QH ratio” means the ratio of the amount of the reduced coenzyme Q10 to the total amount of the coenzyme Q10 present in the crystal, and is calculated in accordance with the following formula.
The “relative QH ratio after storage” is a value obtained by relativizing the QH ratio after storage on the basis of each of the QH ratios measured before the start of storage and after storage, assuming that the QH ratio before storage is 100. The relative QH ratio after storage is calculated in accordance with the following formula.
The “oxidizing rate” is a value obtained by dividing a change (amount of decrease) in the relative QH ratio in the period of storage by the number of days of storage, and is calculated in accordance with the following formula.

[1] = crystal stored at 40° C. and 75% RH for 28 days

| SMILES | Relative QH ratio [1] | Oxidizing rate [%/day] | Relative QH ratio (crystal stored at 40° C. and 75% RH for 29 days) |
| --- | --- | --- | --- |
| COc1c(O)c(C)c(C/C=C(\C)CC/C=C(\C)CC/C=C(\C)CC/C=C(\C)CC/C=C(\C)CC/C=C(\C)CC/C=C(\C)CC/C=C(\C)CC/C=C(\C)CCC=C(C)C)c(O)c1OC [Comparative Example 2, reduced coenzyme Q10] | 88.2 (when stored % | 0.42 | – |
| COc1c(O)c(C)c(C/C=C(\C)CC/C=C(\C)CC/C=C(\C)CC/C=C(\C)CC/C=C(\C)CC/C=C(\C)CC/C=C(\C)CC/C=C(\C)CC/C=C(\C)CCC=C(C)C)c(O)c1OC [Comparative Example 1, reduced coenzyme Q10] | – | 0.48 | 86.1 (when stored % |
| COc1c(O)c(C)c(C/C=C(\C)CC/C=C(\C)CC/C=C(\C)CC/C=C(\C)CC/C=C(\C)CC/C=C(\C)CC/C=C(\C)CC/C=C(\C)CC/C=C(\C)CCC=C(C)C)c(O)c1OC [Example 3, reduced coenzyme Q10] | 93.5 (when stored % | 0.23 | – |
| COc1c(O)c(C)c(C/C=C(\C)CC/C=C(\C)CC/C=C(\C)CC/C=C(\C)CC/C=C(\C)CC/C=C(\C)CC/C=C(\C)CC/C=C(\C)CC/C=C(\C)CCC=C(C)C)c(O)c1OC [Example 2, reduced coenzyme Q10] | 92.6 (when stored % | 0.26 | – |
| COc1c(O)c(C)c(C/C=C(\C)CC/C=C(\C)CC/C=C(\C)CC/C=C(\C)CC/C=C(\C)CC/C=C(\C)CC/C=C(\C)CC/C=C(\C)CC/C=C(\C)CCC=C(C)C)c(O)c1OC [Example 1, reduced coenzyme Q10] | 91.6 (when stored % | 0.30 | – |
